The values that follow come from patent publication US9908890B2, “Selective inhibitors of constitutive androstane receptor” (ST. JUDE CHILDREN'S RESEARCH HOSPITAL, priority 2014, dated 2018).

One series has as its target T1, GST-hCAR-LBD (Homo sapiens, UniProt Q14994).
T1 construct: purchased Life Technologies (Carlsbad, Calif.) or Invitrogen (Carlsbad, Calif.)
T1 sequence (Q14994 109-352 limits assumed): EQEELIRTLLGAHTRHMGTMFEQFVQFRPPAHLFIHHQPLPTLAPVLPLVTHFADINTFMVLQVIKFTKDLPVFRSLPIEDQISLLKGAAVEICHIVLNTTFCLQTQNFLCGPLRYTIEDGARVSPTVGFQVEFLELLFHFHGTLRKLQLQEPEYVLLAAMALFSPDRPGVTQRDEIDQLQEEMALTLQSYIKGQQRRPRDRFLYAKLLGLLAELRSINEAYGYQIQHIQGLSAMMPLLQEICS
In words: CoAct binding inverse agonist assay (LanthaScreen TR-FRET, fluorescent PGC-1α coactivator recruitment/repression). The settings on record: for inhibition at 70 µM / % Inhibition (70 μM): 70 μM compound, 42 μM clotrimazole = 100%, DMSO = 0%; for inhibition at 70 µM: read-out: % Inhibition (70 μM); for fold increase of IC50 (decrease of activity) relative to lead chemical 1 (CINPA1) / fold increase of CAR inverse agonistic activity (potency) over lead chemical 1 (CINPA1): relative to chemical 1. The format is biochemical. How it is done:
The effect of putative CAR ligands on the recruitment or repression of PGC-1α binding to hCAR was evaluated by using a LanthaScreen TR-FRET assay according to the manufacturer's instructions. […] The final DMSO concentration was 0.7% in all assay wells. […] The % Inhibition values were then plotted for individual chemicals. When applicable, the graphic software GraphPad Prism 5.04 (GraphPad Software, La Jolla, Calif., USA) was used to fit the data into a one-site competitive-binding equation to derive IC50 values. […] The assay plates were then briefly spun down and incubated for 1 hour at room temperature (25° C.). […] The final DMSO concentration was 0.7% in all assay wells. […] The % Inhibition values were then plotted for individual chemicals. When applicable, the graphic software GraphPad Prism 5.04 (GraphPad Software, La Jolla, Calif., USA) was used to fit the data into a one-site competitive-binding equation to derive IC50 values.
(In general: Time-resolved FRET reads energy transfer from a long-lived donor to a nearby acceptor.)

A further series addresses T2, hCAR1 (Homo sapiens, UniProt Q14994).
T2 construct: expressed in transfected cells; host or cells: HepG2 (transient transfection)
T2 sequence (Q14994 1-348 isoform Q14994-2): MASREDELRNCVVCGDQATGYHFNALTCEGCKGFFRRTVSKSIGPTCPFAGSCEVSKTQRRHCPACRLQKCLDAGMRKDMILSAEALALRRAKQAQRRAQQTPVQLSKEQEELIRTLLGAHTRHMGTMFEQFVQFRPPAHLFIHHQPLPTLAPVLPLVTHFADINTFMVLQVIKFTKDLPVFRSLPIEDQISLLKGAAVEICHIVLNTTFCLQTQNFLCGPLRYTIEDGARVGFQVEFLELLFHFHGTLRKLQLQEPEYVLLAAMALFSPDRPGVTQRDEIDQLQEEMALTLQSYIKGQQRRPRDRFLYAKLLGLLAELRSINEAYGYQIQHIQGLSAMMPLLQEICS
Kind of series: Cell-based inverse agonist assay (CYP2B6-luciferase reporter in HepG2 cells transfected with hCAR1). How it is done:
HepG2 cells grown in flasks were transfected with Flag-hCAR1 and CYP2B6-luciferase reporter at a 1:3 ratio with Fugene HD (Promega) and incubated for 24 h. Cells were trypsinized and plated in 384-well plates (CulturPlate-384, PerkinElmer) at 5000 cells/well for the primary or secondary screening assays. Cells were treated with chemicals transferred by using a pintool 24 h prior to measuring reporter luciferase activity with SteadyLite firefly luciferase reagent and an EnVision plate reader (PerkinElmer). […] PXR activity was measured in HepG2 cells stably transfected with hPXR and CYP3A4-luciferase reporter (previously described as PXR Clonel cells, see Li, G., et al. (2012) Tox. Appl. Pharm. 258, 268-274; and Lin, W., et al. (2008) J. Biol. Chem. 283, 30650-30657). […] The luminescence signal was detected by using an Envision plate reader (PerkinElmer) and used to calculate the percentage of PXR activation. […] A flowchart of our screening strategy is illustrated in FIG. 1A. HepG2 cells were transiently transfected with pcDNA-hCAR1 and CYP2B6-luciferase plasmids and treated with varying concentrations of the test compounds in 384-well plates for 24 h, and CAR-mediated luciferase activity was measured. Twenty-five hits, defined as those displaying dose-responsive inhibitory effect on the constitutively active hCAR1, were selected and tested in various secondary screening assays. CINPA1 (FIG. 1B) was selected based on its potent inhibitory effect on hCAR1 and lack of detectable agonistic activity against PXR.

Setting [1] is: read-out: IC50 (CAR inverse agonistic activity).

Where “and” joins values, the source holds several entries; their conditions need not be identical. Equal entries are not always repeated. Where two headings read alike, the source gives them in different places.

In the case of `CCN(CC)CC(=O)N1c2ccccc2CCc2ccc(NC(=O)N(CC)CC)cc21` [Compound 8, 3-(5-(diethylglycyl)-10,11-dihydro-5H-dibenzo[b,f]azepin-3-yl)-1,1-diethylurea], at GST-hCAR-LBD, the inhibition at 70 µM is 93.8%. The IC50 at GST-hCAR-LBD (setting [1]) came out at 14000 nM. Besides, on hCAR1, the “IC50” value came to 109600 nM and the “% Inhibition (56 μM)” value came out at 2.849%.

On to `CCNS(=O)(=O)Nc1ccc2c(c1)N(C(=O)CN(CC)CC)c1ccccc1CC2` [Compound 9], for which the inhibition at 70 µM at GST-hCAR-LBD was found to be 92%. Also, the IC50 at GST-hCAR-LBD (setting [1]) was found to be 19100 nM. Besides, at hCAR1, the “IC50” value is 105900 nM and the “% Inhibition (56 μM)” value was 4.757%.

Regarding “N-(5-(diethylglycyl)-10,11-dihydro-5H-dibenzo[b,f]azepin-3-yl)isobutyramide [Compound 3]”, at GST-hCAR-LBD, the “% Inhibition (70 μM)” value is on record as 113.8%. The IC50 worked out at 680 nM on GST-hCAR-LBD (setting [1]) and 104400 nM on hCAR1. The “% Inhibition (56 μM)” value on hCAR1 turned out to be 0.03612%.

For the compound `CCN(CC)CC(=O)N1c2ccccc2CCc2ccc(Nc3nnc(C)o3)cc21` [Compound 10, 2-(diethylamino)-1-(3-((5-methyl-1,3,4-oxadiazol-2-yl)amino)-10,11-dihydro-5H-dibenzo[b,f]azepin-5-yl)ethan-1-one], at GST-hCAR-LBD, the inhibition at 70 µM was determined as 93.8% and the “fold increase of IC50 (decrease of activity) relative to lead chemical 1 (CINPA1)” value is “about 3.4 fold”. The IC50 at GST-hCAR-LBD (Table 4, read-out: IC50) is 18800 nM. At hCAR1, the “IC50” value came to 111600 nM and the “% Inhibition (56 μM)” value worked out at 6.281%.

As for `O=C(Nc1ccc2c(c1)N(C(=O)n1cccc1)c1ccccc1CC2)OC1CCCCC1` [Compound 58], the IC50 at GST-hCAR-LBD (Table 4, read-out: IC50) turned out to be 14 nM.

On to `CC(C)OCC(=O)N1c2ccccc2CCc2ccc(NC(=O)OC(C)(C)C)cc21` [Compound 39, tert-butyl (5-(2-isopropoxyacetyl)-10,11-dihydro-5H-dibenzo[b,f]azepin-3-yl)carbamate], for which the IC50 at GST-hCAR-LBD (setting [1]) came out at 120 nM.

For the compound `O=C(Nc1ccc2c(c1)N(C(=O)Cn1cccc1)c1ccccc1CC2)N1CCCC1` [Compound 45], the IC50 at GST-hCAR-LBD (Table 4, read-out: IC50) is 280 nM.

`CCOC(=O)Nc1ccc2c(c1)N(C(=O)CCN(CC)CC)c1ccccc1CC2` [Compound 22, ethyl (5-(3-(diethylamino)propanoyl)-10,11-dihydro-5H-dibenzo[b,f]azepin-3-yl)carbamate]: at GST-hCAR-LBD, the inhibition at 70 µM turned out to be 119% and the “fold increase of IC50 (decrease of activity) relative to lead chemical 1 (CINPA1)” value was 3.5 fold. Moreover, the IC50 at GST-hCAR-LBD (setting [1]) came to 2430 nM.

`CC(C)OC(=O)Nc1ccc2c(c1)N(C(=O)Cc1cccs1)c1ccccc1CC2` [Compound 62]: the IC50 at GST-hCAR-LBD (Table 4, read-out: IC50) was determined as 21 nM.

With `CCOC(=O)Nc1ccc2c(c1)N(C(=O)COC(C)(C)C)c1ccccc1CC2` [Compound 19, ethyl (5-(2-(tert-butoxy)acetyl)-10,11-dihydro-5H-dibenzo[b,f]azepin-3-yl)carbamate], on GST-hCAR-LBD, the inhibition at 70 µM stood at 120% and the “fold increase of CAR inverse agonistic activity (potency) over lead chemical 1 (CINPA1)” value (shortened to “fold increase … over lead chemical 1 (CINPA1)”) is on record as 9.7 fold. For the same compound, on GST-hCAR-LBD (setting [1]), the half-inhibitory concentration (IC50) was 71 nM.

Turning to `O=C(Nc1ccc2c(c1)N(C(=O)N1CCCCC1)c1ccccc1CC2)OC1CCCCC1` [Compound 59], the IC50 on GST-hCAR-LBD (Table 4, read-out: IC50) was 150 nM.

Turning to `CCN(CC)CCC(=O)N1c2ccccc2CCc2ccc(NC(=O)OC(C)C)cc21` [Compound 25, isopropyl (5-(3-(diethylamino)propanoyl)-10,11-dihydro-5H-Dibenzo[b,f]azepin-3-yl)carbamate], the IC50 on GST-hCAR-LBD (setting [1]) was found to be 6400 nM.

For `O=C(Nc1ccc2c(c1)N(C(=O)Cn1cccc1)c1ccccc1CC2)OC1CCC1` [Compound 42, cyclobutyl (5-(2-(1H-pyrrol-1-yl)acetyl)-10,11-dihydro-5H-dibenzo[b,f]azepin-3-yl)carbamate], the IC50 at GST-hCAR-LBD (setting [1]) is 20 nM.

For the compound `CCOC(=O)Nc1ccc2c(c1)N(C(=O)Cn1cccc1)c1ccccc1CC2` [Compound 16, ethyl (5-(2-(1H-pyrrol-1-yl)acetyl)-10,11-dihydro-5H-dibenzo[b,f]azepin-3-yl)carbamate], at GST-hCAR-LBD, the inhibition at 70 µM was found to be 121% and the “fold increase … over lead chemical 1 (CINPA1)” value amounted to 19 fold. Moreover, at GST-hCAR-LBD (setting [1]), the IC50 came to 37 nM. Besides, the “fold more potent than chemical 13” value at GST-hCAR-LBD (relative to chemical 13) is recorded as 43 fold.

On to `O=C(Nc1ccc2c(c1)N(C(=O)OC1CCCC1)c1ccccc1CC2)OC1CCCCC1` [Compound 60], for which the IC50 on GST-hCAR-LBD (Table 4, read-out: IC50) worked out at 17 nM.

As for `CCOC(=O)Nc1ccc2c(c1)N(C(=O)CN1CCCC1)c1ccccc1CC2` [Compound 13, ethyl (5-(2-(pyrrolidin-1-yl)acetyl)-10,11-dihydro-5H-dibenzo[b,f]azepin-3-yl)carbamate], the inhibition at 70 µM at GST-hCAR-LBD was 115%. The IC50 at GST-hCAR-LBD (Table 4, read-out: IC50) stood at 1580 nM; on GST-hCAR-LBD (quoted in SAR text in nM, read-out: IC50 (CAR inverse agonistic activity)), 1580 nM; on GST-hCAR-LBD (setting [1]) it was 1580 nM. The “fold increase of IC50 (decrease of activity) relative to lead chemical 1 (CINPA1)” value at GST-hCAR-LBD is on record as “more than 2 fold”.

For `CCOC(=O)Nc1ccc2c(c1)N(C(=O)CN1CCOCC1)c1ccccc1CC2` [compound 80], the IC50 on GST-hCAR-LBD (setting [1]) was 240 nM and 235 nM. On GST-hCAR-LBD, the “fold increase … over lead chemical 1 (CINPA1)” value is recorded as “about 3 fold”.

On to `CC(C)OC(=O)Nc1ccc2c(c1)N(C(=O)CCN(C)C)c1ccccc1CC2` [compound 89], for which, at GST-hCAR-LBD (setting [1]), the 50% inhibitory concentration (IC50) stood at 1790 nM. In addition, at GST-hCAR-LBD (relative to chemical 86), the “fold increase of potency compared to chemical 86” value was “about 3 fold”.

With `CCN(CC)CC(=O)N1c2ccccc2CCc2ccc(NC(=O)C(C)(C)C)cc21` [Compound 4, N-(5-(diethylglycyl)-10,11-dihydro-5H-dibenzo[b,f]azepin-3-yl)pivalamide], the inhibition at 70 µM on GST-hCAR-LBD amounted to 113%. Moreover, the IC50 on GST-hCAR-LBD (setting [1]) stood at 1030 nM.

Consider `O=C(Nc1ccc2c(c1)N(C(=O)Cn1cccc1)c1ccccc1CC2)N1CCOCC1` [Compound 48], for which the IC50 on GST-hCAR-LBD (Table 4, read-out: IC50) stood at 370 nM.

As to `CCOC(=O)Nc1ccc2c(c1)N(C(=O)Cn1ccnc1)c1ccccc1CC2` [Compound 17, ethyl (5-(2-(1H-imidazol-1-yl)acetyl)-10,11-dihydro-5H-dibenzo[b,f]azepin-3-yl)carbamate], the inhibition at 70 µM at GST-hCAR-LBD turned out to be 101%. At GST-hCAR-LBD (setting [1]), the IC50 was 6890 nM. Further, the “fold IC50 relative to chemical 16” value at GST-hCAR-LBD (relative to chemical 16) is reported as 186 fold.

For `CCOC(=O)Nc1ccc2c(c1)N(C(=O)CN(CC)CC)c1ccccc1CC2` [Compound 70], the “% Inhibition (70 μM)” value at GST-hCAR-LBD is on record as 104.8%. Further, the IC50 on GST-hCAR-LBD (Table 4, read-out: IC50) was found to be 620 nM.

On to `COC(=O)Nc1ccc2c(c1)N(C(=O)CCN1CCOCC1)c1ccccc1CC2` [compound 87], for which the IC50 on GST-hCAR-LBD (setting [1]) is 290 nM.

For orientation: inhibition means the change of the read-out against control, counted positive when it falls. What is called IC50 is the concentration at which inhibition is half-maximal.
